Read-outs that look alike come from different tables or passages of the source.

The subject of assay [1] is tet0-1A homozygous mice that do not carry the tTS transgene. The assay is described as follows: Control for the effects of doxycycline on baseline anxiety and depression-related behavior. The format is in vivo. The settings on record: transgene-negative littermates. From the text: FIGS. 27A-C Control for the effects of doxycycline on baseline anxiety and depression-related behavior.
(C) Likewise, no differences were detected in the forced swim test on either the first (i) or second (ii) day of testing (N=47).
This was accomplished using a novel bigenic system consisting of two parts: 1) insertion of the tet0 DNA regulatory element into the promoter region of the Htr1a gene, to create the tet0-1A allele and 2) raphe-specific expression of the tetracycline-dependent transcriptional suppressor (tTS) under the control of the previously characterized 540Z Pet-1 promoter fragment (P. M. Fisher et al., Nat Neurosci 9, 1362 (Nov., 2006)). […] Removal of doxycycline for four weeks beginning at postnatal day (PND) 50 creates an adult population of animals with lower expression of 5-HT1A autoreceptors (1A-Low) (FIG. 21b). Four weeks after doxycycline removal, suppression has reached maximal levels (data not shown).

For assay [2], the target named is T1, 5-HT1A autoreceptors (Mus musculus, UniProt Q64264).
T1 sequence (Q64264 1-421): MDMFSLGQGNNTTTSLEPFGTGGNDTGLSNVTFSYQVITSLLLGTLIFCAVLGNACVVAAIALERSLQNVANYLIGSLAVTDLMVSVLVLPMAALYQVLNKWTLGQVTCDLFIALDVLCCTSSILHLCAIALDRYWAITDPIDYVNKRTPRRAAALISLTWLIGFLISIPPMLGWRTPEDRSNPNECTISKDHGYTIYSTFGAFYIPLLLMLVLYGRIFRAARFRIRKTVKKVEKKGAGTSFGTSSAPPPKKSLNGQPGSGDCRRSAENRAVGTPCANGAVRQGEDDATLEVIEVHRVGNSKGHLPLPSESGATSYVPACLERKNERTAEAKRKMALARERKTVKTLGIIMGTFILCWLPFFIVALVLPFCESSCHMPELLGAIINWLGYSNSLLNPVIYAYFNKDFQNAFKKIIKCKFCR
Description: Whole cell recordings in the dorsal raphe, response to 5-HT1A agonist. The format is cell-based. Details: endogenous in cells; host or cells: Serotonergic neurons of the raphe nuclei in mice homozygous for tetO-1A with one copy of Pet-tTS. The settings on record: 1A-High mice vs. 1A-Low mice; 100 nM. From the text: Downward deflections reflect spontaneous synaptic activity.
Much of this difference is accounted for by a smaller proportion of serotonergic neurons responding to the agonist challenge in the 1A-Low mice.

The target in assay [3] is T1, 5-HT1A autoreceptors.
Description: (A) 8-OH DPAT-induced hypothermia in 1A-High and 1A-Low mice. Following establishment of baseline body temperature, animals received IP injections of 0.1 mg/kg 8-OHDAPT, 0.5 mg/kg 8-OH DPAT, or saline (N=5/dose/group). Values are expressed as core temperature change from the last recorded baseline temperature.
Another assay concerns HPA axis. The assay is described as follows: Stress evoked increase of corticosterone levels. The format is in vivo, mice. The settings on record: acute swim stress; baseline conditions and after chronic corticosterone treatment. On the procedure: Adult male C57BL/6Ntac mice were exposed to a 6 minutes swim stress. […]. Blood was collected into ice-chilled tubes containing EDTA and centrifuged at 3000 rpm for 10 min (at 4° C.) for separation of plasma, and plasma samples were stored at −80° C. until assayed. […]; Diagnostic Systems Laboratories, Inc. Webster, Tex.; sensitivity limit: 20 ng/ml). ACTH was measured directly in plasma using an ImmuChem™ Double Antibody hACTH 1251 RIA kit (No. 07-106101; MP Biomedicals, LLC, Orangeburg, N.Y.) with a sensitivity limit ˜5.7 pg/ml. All samples were measured simultaneously to reduce inter-assay variability.

Assay [4] has as its system C57BL/6Ntac mice. The assay is described as follows: Forced Swim Test, chronic corticosterone model. Format: in vivo. The settings on record: for immobility duration (FST): mean±SEM.
Assay [5] has as its system C57BL/6Ntac mice. The assay is described as follows: Open Field paradigm, chronic corticosterone model. Format: in vivo. Particulars: 3-week antidepressant treatment in corticosterone-treated mice; imipramine 40, fluoxetine 18 mg/kg/day. An excerpt: The procedure described previously was used (Dulawa et al., 2004). Motor activity was quantified in four Plexiglas open field boxes 43 times 43 cm2 (MED Associates, Georgia, Vt.). Two sets of 16 pulse-modulated infrared photobeams were placed on opposite walls 2.5-cm apart to record x-y ambulatory movements. Activity chambers were computer interfaced for data sampling at 100-ms resolution. The computer defined grid lines that divided each Open Field into center and surround regions, with each of four lines being 11 cm from each wall. Dependent measures in the center were the total time and the number of entries over a 30-min period of test. The whole session was also divided in […] to analyze the time spent in the center every 5 min. The overall motor activity was quantified as the total distance traveled (cm) or distance traveled in the center divided by total distance traveled.
Mice were anesthetized with ketamine and xylazine (100 mg/ml ketamine; 20 mg/ml xylazine), placed in a stereotaxic frame and exposed to cranial irradiation using a Siemens Stabilopan X-ray system operated at 300 kVp and 20 mA. Animals were protected with a lead shield that covered the entire body, but left unshielded a 3.22×11-mm treatment field above the hippocampus (interaural 3.00 to 0.00) exposed to X-Ray. Dosimetry was done using a Capintec Model PR06G electrometer ionization chamber and Kodak Readypack Radiographic XV films. The corrected dose rate was approximately 1.8 Gy per min at a source to skin distance of 30 cm. The procedure lasted 2 min and 47 sec, delivering a total of 5 Gy. Three 5 Gy doses were delivered on days 1, 4 and 8.

Turning to `C[C@H]1c2cccc(O)c2C(=O)C2=C(O)[C@]3(O)C(=O)C(C(N)=O)=C(O)[C@@H](N(C)C)[C@@H]3[C@@H](O)[C@@H]21` [doxycycline], in assay [1], the “effect on behavioral measures (Open Field, Light/Dark choice test, forced swim test)” value was “no effect”.

Regarding `NCCc1c[nH]c2ccc(C(N)=O)cc12` [5-CT], at 5-HT1A autoreceptors [2], the “average current elicited by agonist challenge in serotonergic neurons” value was “significantly higher”.

Consider `CCCN(CCC)C1CCc2cccc(O)c2C1` (stereo not shown) [8-OH DPAT], for which the “hypothermic response to 5-HT1A agonist challenge” value on 5-HT1A autoreceptors [3] (1A-High mice, 0.1 and 0.5 mg/kg IP) is “robust and dose-dependent hypothermic response”; at 5-HT1A autoreceptors [3] (1A-Low mice, detected only at the highest dose) it was “attenuated response”. Further, on 5-HT1A autoreceptors [3] (1A-High vehicle control mice, 0.5 mg/kg i.p.), the “hypothermic response to 8-OH DPAT” value is given as “robust hypothermic response”.

Regarding `CN(C)CCCN1c2ccccc2CCc2ccccc21` [imipramine], the “stress induced corticosterone levels” value with HPA axis is on record as “had no effect”. In addition, the “immobility duration (FST)” value with C57BL/6Ntac mice [4] (corticosterone treated animals, alone or with antidepressant) is reported as 296.8 s; with C57BL/6Ntac mice [4] (non-corticosterone treated animals) it was 298.5 s. Further, in the assay on C57BL/6Ntac mice [4] (two-way ANOVA, corticosterone 7 weeks, antidepressants last 3 weeks), the “duration of immobility (FST), effect” value is recorded as “decreased”. Also, the “corticosterone-induced anxiety phenotype in the Open Field (time and entries in the center)” value in the assay on C57BL/6Ntac mice [5] is “reversed”.

These data come from patent US20110296540A1, “ASSAY FOR SCREENING ANTIDEPRESSANTS” (priority 2008, published 2011).
